According to ChEMBL document CHEMBL1944550, “In vitro and in silico studies on substrate recognition and acceptance of human PKMYT1, a Cdk1 inhibitory kinase” (Bioorg Med Chem Lett, 2012):
Activity calls are given as the source filed them. No cut-off for these calls is given here. Residues, ends and D or L forms follow the SMILES beside them.

Legend:
[1] = target: T1, Membrane-associated tyrosine- and threonine-specific cdc2-inhibitory kinase (Homo sapiens, UniProt Q99640); assay: Competitive inhibition of human Myt1 by TR-FRET assay
T1 sequence (Q99640 whole entry): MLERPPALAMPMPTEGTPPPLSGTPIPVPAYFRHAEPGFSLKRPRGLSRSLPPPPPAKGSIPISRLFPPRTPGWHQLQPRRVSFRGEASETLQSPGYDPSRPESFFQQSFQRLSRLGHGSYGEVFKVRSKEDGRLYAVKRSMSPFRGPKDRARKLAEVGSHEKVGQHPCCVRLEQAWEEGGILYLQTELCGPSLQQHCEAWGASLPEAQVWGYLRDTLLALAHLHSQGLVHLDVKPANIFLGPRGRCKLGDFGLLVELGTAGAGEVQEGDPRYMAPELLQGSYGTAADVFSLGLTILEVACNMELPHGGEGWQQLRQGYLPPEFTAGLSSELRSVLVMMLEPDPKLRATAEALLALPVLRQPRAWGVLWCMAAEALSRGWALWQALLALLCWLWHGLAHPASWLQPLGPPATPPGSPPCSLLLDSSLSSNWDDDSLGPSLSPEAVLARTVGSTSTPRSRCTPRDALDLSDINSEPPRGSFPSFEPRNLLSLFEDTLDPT

[2] = target: T2, Membrane-associated tyrosine- and threonine-specific cdc2-inhibitory kinase (Homo sapiens) (UniProt Q99640); assay: Activity at human Myt1 (75 to 362) expressed in Escherichia coli BL21 (DE3) cells assessed as Cdk1 phosphorylation at Try15 at 10 uM after 30 mins by fluorescence polarization immunoassay
T2 sequence (whole entry): T1 sequence (Q99640 whole entry)

[3] = target: T2, Membrane-associated tyrosine- and threonine-specific cdc2-inhibitory kinase (Homo sapiens); assay: Activity at human Myt1 (75 to 362) expressed in Escherichia coli BL21 (DE3) cells assessed as Cdk1 phosphorylation at Thr14 at 10 uM after 30 mins by fluorescence polarization immunoassay
[4] = target: T2, Membrane-associated tyrosine- and threonine-specific cdc2-inhibitory kinase (Homo sapiens); assay: Activity at full length human Myt1 expressed in human HEK293 cells assessed as Cdk1 phosphorylation at Try15 at 10 uM after 30 mins by fluorescence polarization immunoassay
[5] = target: T2, Membrane-associated tyrosine- and threonine-specific cdc2-inhibitory kinase (Homo sapiens); assay: Activity at full length human Myt1 expressed in human HEK293 cells assessed as Cdk1 phosphorylation at Thr14 at 10 uM after 30 mins by fluorescence polarization immunoassay
[6] = target: T1, Membrane-associated tyrosine- and threonine-specific cdc2-inhibitory kinase; assay: Activity at full length human Myt1 expressed in human HEK293 cells at 10 uM after 30 mins by fluorescence polarization immunoassay

CCN(CC)CCOc1ccc(Nc2ncc3cc(-c4c(Cl)cccc4Cl)c(=O)n(C)c3n2)cc1 [PD-0166285]
IC50 [1]: 7 nM

CC[C@H](C)[C@H](NC(=O)[C@H](CCCCN)NC(=O)[C@@H](N)CCC(N)=O)C(=O)NCC(=O)N[C@@H](CCC(=O)O)C(=O)NCC(=O)N[C@H](C(=O)N[C@@H](Cc1ccc(O)cc1)C(=O)NCC(=O)N[C@H](C(=O)N[C@H](C(=O)N[C@@H](Cc1ccc(O)cc1)C(=O)N[C@@H](CCCCN)C(=O)N[C@@H](CS)C(=O)O)C(C)C)C(C)C)[C@@H](C)OP(=O)(O)O (HELM PEPTIDE1{Q.K.I.G.E.G.[C[C@@H](OP(=O)(O)O)[C@H](N[*:1])C(=O)[*:2]].Y.G.V.V.Y.K.C}$$$$V2.0)
Activity [2]: inactive
Activity [3]: inactive
Activity [4]: inactive
Activity [5]: inactive

CC[C@H](C)[C@H](NC(=O)[C@H](CCCCN)NC(=O)[C@@H](N)CCC(N)=O)C(=O)NCC(=O)N[C@@H](CCC(=O)O)C(=O)NCC(=O)N[C@H](C(=O)N[C@@H](Cc1ccc(OP(=O)(O)O)cc1)C(=O)NCC(=O)N[C@H](C(=O)N[C@H](C(=O)N[C@@H](Cc1ccc(O)cc1)C(=O)N[C@@H](CCCCN)C(=O)N[C@@H](CS)C(=O)O)C(C)C)C(C)C)[C@@H](C)O (HELM PEPTIDE1{Q.K.I.G.E.G.T.[O=C([C@H](Cc1ccc(OP(=O)(O)O)cc1)N[*:1])[*:2]].G.V.V.Y.K.C}$$$$V2.0)
Activity [2]: inactive
Activity [3]: inactive
EC50 [6]: 18 nM
Activity [4]: inactive
Activity [5]: inactive

CC[C@H](C)[C@H](NC(=O)[C@H](CCCCN)NC(=O)[C@@H](N)CCC(N)=O)C(=O)NCC(=O)N[C@@H](CCC(=O)O)C(=O)NCC(=O)N[C@H](C(=O)N[C@@H](Cc1ccc(OP(=O)(O)O)cc1)C(=O)NCC(=O)N[C@H](C(=O)N[C@H](C(=O)N[C@@H](Cc1ccc(O)cc1)C(=O)N[C@@H](CCCCN)C(=O)N[C@@H](CS)C(=O)O)C(C)C)C(C)C)[C@@H](C)OP(=O)(O)O (HELM PEPTIDE1{Q.K.I.G.E.G.[C[C@@H](OP(=O)(O)O)[C@H](N[*:1])C(=O)[*:2]].[O=C([C@H](Cc1ccc(OP(=O)(O)O)cc1)N[*:1])[*:2]].G.V.V.Y.K.C}$$$$V2.0)
Activity [2]: inactive
Activity [3]: inactive
Activity [4]: inactive
Activity [5]: inactive

H-EKIGEGTYGVVYKC-OH
Activity [2]: inactive
Activity [3]: inactive
Activity [4]: inactive
Activity [5]: inactive

H-QKIGEGTYGVVYKC-OH
Activity [2]: inactive
Activity [3]: inactive
Activity [4]: inactive
Activity [5]: inactive
